Results taken from patent publication US8853418B2, “Cyclopentylpyrazoles as N-type calcium channel blockers” (Janssen Pharmaceutica NV, priority 2012, dated 2014).
pIC50: −log10 of the molar value. Like-named read-outs stand apart in the source and are kept apart here.

Experiments:
[1] = molecular target: N-type calcium channel (α1B (Cav2.2), β3 and α2δ subunits) (Homo sapiens, UniProt Q00975); assay: Functional Assay: Antagonism of N-Type Calcium Channel (FDSS calcium mobilization, KCl depolarization); type: cell-based; details: for pIC50: HEK cell line, 50 mM KCl depolarization, six-point concentration-response, read-out: FDSS IC50
Sequence of N-type calcium channel (α1B (Cav2.2), β3 and α2δ subunits) (Q00975 whole entry): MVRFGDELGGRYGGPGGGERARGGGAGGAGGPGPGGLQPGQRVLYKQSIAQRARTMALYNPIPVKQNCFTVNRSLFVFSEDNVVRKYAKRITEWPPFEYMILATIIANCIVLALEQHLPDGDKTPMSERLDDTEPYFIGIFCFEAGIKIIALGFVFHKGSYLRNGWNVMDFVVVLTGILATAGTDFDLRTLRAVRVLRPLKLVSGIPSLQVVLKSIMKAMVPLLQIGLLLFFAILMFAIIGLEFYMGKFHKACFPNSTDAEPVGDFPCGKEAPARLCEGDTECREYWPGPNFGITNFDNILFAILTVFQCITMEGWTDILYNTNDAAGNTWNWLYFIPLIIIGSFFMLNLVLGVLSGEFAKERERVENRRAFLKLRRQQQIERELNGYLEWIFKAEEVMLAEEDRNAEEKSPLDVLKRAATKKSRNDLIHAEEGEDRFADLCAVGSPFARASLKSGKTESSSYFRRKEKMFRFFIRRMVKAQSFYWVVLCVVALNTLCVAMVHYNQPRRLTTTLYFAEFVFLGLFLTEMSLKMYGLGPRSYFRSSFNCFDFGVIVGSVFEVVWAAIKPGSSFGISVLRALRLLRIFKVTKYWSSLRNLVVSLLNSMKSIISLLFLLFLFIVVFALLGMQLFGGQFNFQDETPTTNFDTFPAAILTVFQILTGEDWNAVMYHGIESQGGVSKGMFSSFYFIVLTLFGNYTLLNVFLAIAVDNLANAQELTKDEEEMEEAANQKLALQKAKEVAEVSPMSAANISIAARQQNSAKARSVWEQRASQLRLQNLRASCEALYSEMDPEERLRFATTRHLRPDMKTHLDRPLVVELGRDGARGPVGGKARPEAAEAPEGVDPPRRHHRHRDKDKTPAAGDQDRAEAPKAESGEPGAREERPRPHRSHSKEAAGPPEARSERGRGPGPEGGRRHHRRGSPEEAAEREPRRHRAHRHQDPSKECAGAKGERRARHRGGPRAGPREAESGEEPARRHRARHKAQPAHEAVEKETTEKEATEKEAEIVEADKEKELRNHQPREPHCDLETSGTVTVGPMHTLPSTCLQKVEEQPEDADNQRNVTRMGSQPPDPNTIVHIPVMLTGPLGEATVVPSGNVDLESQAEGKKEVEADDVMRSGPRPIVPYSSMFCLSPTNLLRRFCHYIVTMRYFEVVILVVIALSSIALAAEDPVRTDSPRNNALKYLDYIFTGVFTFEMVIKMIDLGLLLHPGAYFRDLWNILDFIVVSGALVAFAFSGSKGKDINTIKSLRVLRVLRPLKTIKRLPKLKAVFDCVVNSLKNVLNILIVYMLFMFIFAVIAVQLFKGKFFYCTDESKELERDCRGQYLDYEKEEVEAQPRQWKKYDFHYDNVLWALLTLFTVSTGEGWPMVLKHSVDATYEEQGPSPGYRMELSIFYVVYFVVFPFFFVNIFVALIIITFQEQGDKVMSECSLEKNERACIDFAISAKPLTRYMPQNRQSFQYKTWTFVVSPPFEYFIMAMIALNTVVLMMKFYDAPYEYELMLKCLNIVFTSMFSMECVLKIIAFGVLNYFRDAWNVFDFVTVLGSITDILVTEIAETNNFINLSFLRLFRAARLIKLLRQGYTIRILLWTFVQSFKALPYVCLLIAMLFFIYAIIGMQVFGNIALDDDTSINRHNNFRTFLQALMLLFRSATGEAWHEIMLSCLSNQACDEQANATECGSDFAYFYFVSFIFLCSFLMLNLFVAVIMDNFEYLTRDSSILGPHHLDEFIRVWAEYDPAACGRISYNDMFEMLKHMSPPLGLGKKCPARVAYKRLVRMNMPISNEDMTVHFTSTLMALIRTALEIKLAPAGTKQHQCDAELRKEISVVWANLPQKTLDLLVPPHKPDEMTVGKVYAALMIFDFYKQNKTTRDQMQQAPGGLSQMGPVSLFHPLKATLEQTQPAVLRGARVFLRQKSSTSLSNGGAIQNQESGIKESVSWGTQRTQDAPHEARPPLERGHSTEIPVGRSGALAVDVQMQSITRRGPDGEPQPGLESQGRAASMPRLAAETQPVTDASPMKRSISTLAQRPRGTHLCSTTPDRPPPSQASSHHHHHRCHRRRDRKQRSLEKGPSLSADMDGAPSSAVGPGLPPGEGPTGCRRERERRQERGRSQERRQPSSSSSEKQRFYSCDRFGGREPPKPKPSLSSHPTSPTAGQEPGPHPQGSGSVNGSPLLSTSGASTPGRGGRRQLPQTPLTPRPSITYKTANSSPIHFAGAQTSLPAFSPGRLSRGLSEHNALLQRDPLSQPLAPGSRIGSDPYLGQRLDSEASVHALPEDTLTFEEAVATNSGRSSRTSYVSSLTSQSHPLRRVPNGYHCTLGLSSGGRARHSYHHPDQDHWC
Sequence of N-type calcium channel (α1B (Cav2.2), β3 and α2δ subunits) (P54284 whole entry partner): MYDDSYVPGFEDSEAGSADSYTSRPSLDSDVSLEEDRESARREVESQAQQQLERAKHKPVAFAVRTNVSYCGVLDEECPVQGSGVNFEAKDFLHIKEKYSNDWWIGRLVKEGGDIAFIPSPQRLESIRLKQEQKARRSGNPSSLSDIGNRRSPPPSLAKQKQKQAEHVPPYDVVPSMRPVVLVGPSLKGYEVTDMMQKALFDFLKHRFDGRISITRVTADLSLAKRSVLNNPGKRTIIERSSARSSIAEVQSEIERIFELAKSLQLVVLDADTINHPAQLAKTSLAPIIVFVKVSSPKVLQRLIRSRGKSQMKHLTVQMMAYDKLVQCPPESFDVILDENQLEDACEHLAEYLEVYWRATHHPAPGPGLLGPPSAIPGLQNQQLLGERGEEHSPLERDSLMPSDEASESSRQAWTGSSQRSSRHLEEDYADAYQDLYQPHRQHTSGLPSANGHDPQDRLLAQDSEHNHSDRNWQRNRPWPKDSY
Sequence of N-type calcium channel (α1B (Cav2.2), β3 and α2δ subunits) (P54289 25-946 partner limits assumed): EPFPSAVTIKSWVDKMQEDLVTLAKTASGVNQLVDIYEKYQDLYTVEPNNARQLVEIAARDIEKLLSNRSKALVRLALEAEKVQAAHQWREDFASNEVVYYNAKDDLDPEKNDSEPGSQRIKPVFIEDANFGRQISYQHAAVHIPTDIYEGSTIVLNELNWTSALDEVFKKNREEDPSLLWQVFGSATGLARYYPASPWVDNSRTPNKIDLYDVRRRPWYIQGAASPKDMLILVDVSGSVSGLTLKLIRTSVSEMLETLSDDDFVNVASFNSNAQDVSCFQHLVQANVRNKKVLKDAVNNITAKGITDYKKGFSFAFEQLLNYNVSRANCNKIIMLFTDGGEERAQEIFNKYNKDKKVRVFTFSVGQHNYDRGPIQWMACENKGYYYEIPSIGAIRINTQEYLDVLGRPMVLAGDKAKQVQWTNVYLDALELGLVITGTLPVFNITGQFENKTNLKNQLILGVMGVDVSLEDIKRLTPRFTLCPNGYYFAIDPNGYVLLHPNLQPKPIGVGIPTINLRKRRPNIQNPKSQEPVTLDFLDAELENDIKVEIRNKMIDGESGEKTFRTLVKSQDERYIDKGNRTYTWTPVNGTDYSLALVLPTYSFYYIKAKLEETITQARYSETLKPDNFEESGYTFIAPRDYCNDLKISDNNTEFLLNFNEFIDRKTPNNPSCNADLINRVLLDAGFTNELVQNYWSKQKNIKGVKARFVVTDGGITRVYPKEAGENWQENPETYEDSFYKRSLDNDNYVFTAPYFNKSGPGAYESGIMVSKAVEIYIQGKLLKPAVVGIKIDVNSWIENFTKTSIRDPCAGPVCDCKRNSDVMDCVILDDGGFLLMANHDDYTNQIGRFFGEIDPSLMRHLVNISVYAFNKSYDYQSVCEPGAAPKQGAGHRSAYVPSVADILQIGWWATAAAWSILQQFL
Sequence of N-type calcium channel (α1B (Cav2.2), β3 and α2δ subunits) (P54289 947-1103 partner limits assumed): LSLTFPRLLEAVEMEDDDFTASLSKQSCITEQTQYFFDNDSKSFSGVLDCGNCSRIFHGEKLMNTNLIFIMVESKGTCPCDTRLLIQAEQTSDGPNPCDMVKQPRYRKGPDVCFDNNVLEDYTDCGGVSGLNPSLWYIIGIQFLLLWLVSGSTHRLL
In short: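 HEK cells stably co-expressing α1B (Cav2.2), β3 and α2δ were loaded with calcium dye, then given compound with fluorescence recorded for 5 min before 50 mM KCl depolarisation and 3 min more reading. IC50 came from six-point curves of maximal fluorescence, normalised to KCl maximum and buffer minimum.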

N-type calcium channel = N-type calcium channel (Homo sapiens, UniProt Q00975); assay: Automated Electrophysiology Assay (QPatch-HT whole-cell patch clamp; low- and high-frequency stimulation); type: cell-based
Sequence of N-type calcium channel (Q00975 whole entry): as the sequence (Q00975 whole entry) above
Sequence of N-type calcium channel (P54284 whole entry partner): as the sequence (P54284 whole entry partner) above
Sequence of N-type calcium channel (P54289 25-946 partner limits assumed): as the sequence (P54289 25-946 partner limits assumed) above
Sequence of N-type calcium channel (P54289 947-1103 partner limits assumed): as the sequence (P54289 947-1103 partner limits assumed) above

[2] = high-frequency stimulation (15th pulse), read-out: QPatch at High Frequency % Inhibition
[3] = low frequency, read-out: QPatch at Low Frequency % Inhibition

SMILES | inhibition at 0.33 µM ([1]; 0.33 μM) [%] | pIC50 [1] | inhibition at 1 µM (N-type calcium channel; [2]) [%] | inhibition at 1 µM (N-type calcium channel; [3]) [%] | inhibition at 0.1 µM (N-type calcium channel; [2]) [%] | inhibition at 0.1 µM (N-type calcium channel; [3]) [%] | inhibition at 0.25 µM (N-type calcium channel; [2]) [%] | inhibition at 5 µM (N-type calcium channel; [2]) [%] | inhibition at 0.25 µM (N-type calcium channel; [3]) [%] | inhibition at 5 µM (N-type calcium channel; [3]) [%] | inhibition at 0.33 µM [1] [%]
CCc1ncn([C@@H]2Cc3nn(-c4ccccc4OC)c(-c4ccc(C#N)cc4)c3C2)c1CC [Compound 139, 4-[(5S)-5-(4,5-diethyl-1H-imidazol-1-yl)-2-(2-methoxyphenyl)-2,4,5,6-tetrahydrocyclopenta[c]pyrazol-3-yl]benzonitrile] | 87 | 7.43 | 66 | 72 | – | – | – | – | – | – | –
COc1ccccc1-n1nc2c(c1-c1ccc(C)nc1)CC1(C2)OC(C)(C)C(C)(C)O1 [Compound 109, 2-(2-methoxyphenyl)-4′,4′,5′,5′-tetramethyl-3-(6-methylpyridin-3-yl)-2,6-dihydro-4H-spiro[cyclopenta[c]pyrazole-5,2′-[1,3]dioxolane]] | 84 | 7.72 | – | – | 9 | 8 | – | – | – | – | –
CCOc1ccccc1-n1nc2c(c1-c1ccc(Cl)cc1)CC(OC(=O)N(C)C)C2 (stereo not drawn) [Compound 30, 3-(4-chlorophenyl)-2-(2-ethoxyphenyl)-2,4,5,6-tetrahydrocyclopenta[c]pyrazol-5-yl dimethylcarbamate] | – | 7.55 | – | – | 25 | 9 | – | – | – | – | –
COc1ccccc1-n1nc2c(c1-c1ccc(Cl)cc1)CC1(C2)O[C@@H](C)[C@H](C)O1 [Compound 99, (4′S,5′S)-3-(4-chlorophenyl)-2-(2-methoxyphenyl)-4′,5′-dimethyl-2,6-dihydro-4H-spiro[cyclopenta[c]pyrazole-5,2′-[1,3]dioxolane]] | 93 | 7.89 | – | – | 34 | -4 | – | – | – | – | –
COc1ccccc1-n1nc2c(c1-c1ccc(Cl)cc1)CC(CCOC(=O)N(C)C)C2 (stereo not drawn) [Compound 3, 2-[3-(4-chlorophenyl)-2-(2-methoxyphenyl)-2,4,5,6-tetrahydrocyclopenta[c]pyrazol-5-yl]ethyl dimethylcarbamate] | – | 7.59 | 76 | 69 | – | – | 57 | 88 | 35 | 93 | –
COc1ccccc1-n1nc2c(c1-c1ccc(Cl)cc1)CC(N(C)S(C)(=O)=O)C2 (stereo not drawn) [Compound 37, N-[3-(4-chlorophenyl)-2-(2-methoxyphenyl)-2,4,5,6-tetrahydrocyclopenta[c]pyrazol-5-yl]-N-methylmethanesulfonamide] | – | 8.19 | – | – | 46 | 44 | – | – | – | – | –
CCc1ccccc1-n1nc2c(c1-c1ccc(Cl)cc1)CC(CNC(=O)OC(C)(C)C)C2 (stereo not drawn) [Compound 16, tert-butyl{[3-(4-chlorophenyl)-2-(2-ethylphenyl)-2,4,5,6-tetrahydrocyclopenta[c]pyrazol-5-yl]methyl}carbamate] | – | 6.89 | 43 | 19 | – | – | – | – | – | – | –
COc1ccccc1-n1nc2c(c1-c1ccc(Cl)cc1)C[C@H](OCC(C)C)C2 [Compound 85, (5S)-3-(4-chlorophenyl)-2-(2-methoxyphenyl)-5-(2-methylpropoxy)-2,4,5,6-tetrahydrocyclopenta[c]pyrazole] | 94 | 7.64 | – | – | 2 | -5 | – | – | – | – | –
CCOC(=O)C1Cc2nn(-c3ccccc3OC)c(-c3ccc(Cl)cc3)c2C1 (stereo not drawn) [Compound 5, ethyl 3-(4-chlorophenyl)-2-(2-methoxyphenyl)-2,4,5,6-tetrahydrocyclopenta[c]pyrazole-5-carboxylate] | – | 7.37 | – | – | – | – | – | 85 | – | 82 | –
COc1ccccc1-n1nc2c(c1-c1ccc(Cl)cc1)CC1(C2)O[C@H](C)[C@@H](C)O1 [Compound 98, (4′R,5′R)-3-(4-chlorophenyl)-2-(2-methoxyphenyl)-4′,5′-dimethyl-2,6-dihydro-4H-spiro[cyclopenta[c]pyrazole-5,2′-[1,3]dioxolane]] | 102 | 8.23 | – | – | 28 | -6 | – | – | – | – | –
COc1ccccc1-n1nc2c(c1-c1ccc(Cl)cc1)CC1(C2)O[C@H]2CCCC[C@H]2O1 (stereo partly drawn) [Compound 112, (3aR,7aS)-3′-(4-chlorophenyl)-2′-(2-methoxyphenyl)-2′,3a,4,5,6,6′,7,7a-octahydro-4′H-spiro[1,3-benzodioxole-2,5′-cyclopenta[c]pyrazole]] | – | – | – | – | 26 | 7 | – | – | – | – | 90
COc1ccccc1-n1nc2c(c1-c1ccc(Cl)cc1)CC(NS(C)(=O)=O)C2 (stereo not drawn) [Compound 32, N-[3-(4-chlorophenyl)-2-(2-methoxyphenyl)-2,4,5,6-tetrahydrocyclopenta[c]pyrazol-5-yl]methanesulfonamide] | – | 7.59 | – | – | 20 | 18 | – | – | – | – | –
COc1ccccc1-n1nc2c(c1-c1ccc(Cl)cc1)C[C@H](OC(=O)C1CCC1)C2 [Compound 80, (5S)-3-(4-chlorophenyl)-2-(2-methoxyphenyl)-2,4,5,6-tetrahydrocyclopenta[c]pyrazol-5-yl cyclobutanecarboxylate] | 89 | 7.51 | 43 | 6 | 22 | 7 | – | – | – | – | –
COc1ccccc1-n1nc2c(c1-c1ccc(Cl)cc1)CC1(C2)O[C@H]2CCC[C@@H]2O1 [Compound 113, (3aS,6aS)-3′-(4-chlorophenyl)-2′-(2-methoxyphenyl)-2′,4,5,6,6′,6a-hexahydro-3aH,4′H-spiro[cyclopenta[d][1,3]dioxole-2,5′-cyclopenta[c]pyrazole]] | 82 | 7.38 | – | – | 3 | -4 | – | – | – | – | –
CCOc1ccccc1-n1nc2c(c1-c1ccc(Cl)cc1)CC(N1C(=O)CCC1=O)C2 (stereo not drawn) [Compound 38, 1-[3-(4-chlorophenyl)-2-(2-ethoxyphenyl)-2,4,5,6-tetrahydrocyclopenta[c]pyrazol-5-yl]pyrrolidine-2,5-dione] | – | 8.12 | – | – | 53 | 47 | – | – | – | – | –
COc1ccccc1-n1nc2c(c1-c1ccc(Cl)cc1)CC1(C2)O[C@@H](C)C[C@H](C)O1 (stereo partly drawn) [Compound 101, (4′S,6′S)-3-(4-chlorophenyl)-2-(2-methoxyphenyl)-4′,6′-dimethyl-2,6-dihydro-4H-spiro[cyclopenta[c]pyrazole-5,2′-[1,3]dioxane]] | 98 | 7.57 | – | – | 40 | 3 | – | – | – | – | –
COc1ccccc1-n1nc2c(c1-c1ccc(Cl)cc1)C[C@H](OC(=O)C(C)C)C2 [Compound 81, (5S)-3-(4-chlorophenyl)-2-(2-methoxyphenyl)-2,4,5,6-tetrahydrocyclopenta[c]pyrazol-5-yl 2-methylpropanoate] | 86 | 7.32 | – | – | 12 | -4 | – | – | – | – | –
CCOc1ccccc1-n1nc2c(c1-c1ccc(Cl)cc1)CC(n1ccnc1)C2 (stereo not drawn) [Compound 39, 3-(4-chlorophenyl)-2-(2-ethoxyphenyl)-5-(1H-imidazol-1-yl)-2,4,5,6-tetrahydrocyclopenta[c]pyrazole] | 81 | 7.42 | 72 | 51 | 29 | 13 | 47 | – | 34 | – | –
CCOc1ccccc1-n1nc2c(c1-c1ccc(Cl)cc1)CC(=O)C2 [Compound 36, 3-(4-chlorophenyl)-2-(2-ethoxyphenyl)-2,6-dihydrocyclopenta[c]pyrazol-5(4H)-one] | – | 7.54 | – | – | 26 | 18 | – | – | – | – | –
COc1ccccc1-n1nc2c(c1-c1ccc(Cl)cc1)C[C@H](O[C@H]1C[C@@H]3CC[C@H]1C3)C2 [Compound 89, (5S)-5-[(1S,2S,4R)-bicyclo[2.2.1]hept-2-yloxy]-3-(4-chlorophenyl)-2-(2-methoxyphenyl)-2,4,5,6-tetrahydrocyclopenta[c]pyrazole] | 85 | 7.31 | – | – | 26 | 6 | – | – | – | – | –
COc1ccccc1-n1nc2c(c1-c1ccc(C#N)cc1)CC1(C2)OC(C)(C)C(C)(C)O1 [Compound 111, 4-[2-(2-methoxyphenyl)-4′,4′,5′,5′-tetramethyl-2,6-dihydro-4H-spiro[cyclopenta[c]pyrazole-5,2′-[1,3]dioxolan]-3-yl]benzonitrile] | 90 | 8.43 | – | – | 21 | -5 | – | – | – | – | –
CCOc1ccccc1-n1nc2c(c1-c1ccc(Cl)cc1)CC(n1cc([Si](C)(C)C)nn1)C2 (stereo not drawn) [Compound 41, 3-(4-chlorophenyl)-2-(2-ethoxyphenyl)-5-[4-(trimethylsilyl)-1H-1,2,3-triazol-1-yl]-2,4,5,6-tetrahydrocyclopenta[c]pyrazole] | 92 | 7.62 | – | – | 60 | 58 | – | – | – | – | –
COc1ccccc1-n1nc2c(c1-c1ccc(Cl)cc1)CC(N1CCOCC1)C2 (stereo not drawn) [Compound 68, 3-(4-chlorophenyl)-2-(2-methoxyphenyl)-5-morpholin-4-yl-2,4,5,6-tetrahydrocyclopenta[c]pyrazole] | 95 | 7.80 | – | – | 31 | 33 | – | – | – | – | –
